Activity calls are given as the source filed them. The rule behind the calls is not given here.

Data set [1] is described as follows: Toxicity in nude mouse xenografted with human HepG2 cells assessed as change in body weight at 20 mg/kg administrated daily for 50 days post implantation. The data set is classed as organism-based. As to conditions: in vivo, 1200 h.
The subject of a further data set is A549. The experiment in a line: Antiproliferative activity against human A549 cells incubated for 72 hrs by MTT assay. The data set is classed as functional, cell-based. Particulars: A549, 72 h.
The subject of data set [2] is HepG2. The experiment in a line: Antiproliferative activity against human HepG2 cells incubated for 72 hrs by MTT assay. Format: functional, cell-based. As to conditions: HepG2, 72 h.
Data set [3] can be described thus: Toxicity in nude mouse xenografted with human HepG2 cells assessed as change in body weight at 40 mg/kg administrated daily for 50 days post implantation. The data set is classed as organism-based. As to conditions: in vivo, 1200 h.
In another data set the test system is SH-SY5Y. The data set can be described thus: Antiproliferative activity against human SH-SY5Y cells incubated for 72 hrs by MTT assay. Format: functional, cell-based.
The subject of data set [4] is HepG2. The experiment in a line: Antitumor activity against human HepG2 cells xenografted in nude mouse assessed as inhibition of tumor at 40 mg/kg administrated daily for 30 days post implantation by vernier caliper analysis relative to control. As to conditions: HepG2, 720 h. Format: functional.
The test system of another data set is MCF7. The data set can be described thus: Antiproliferative activity against human MCF7 cells incubated for 72 hrs by MTT assay. The data set is classed as functional, cell-based. Particulars: MCF7, 72 h.
The test system of the next data set is DU-145. The experiment in a line: Antiproliferative activity against human DU145 cells incubated for 72 hrs by MTT assay. The data set is classed as functional, cell-based. As to conditions: DU-145, 72 h.
In data set [5] the test system is HepG2. The data set can be described thus: Induction of apoptosis in human HepG2 cells assessed as viable cells at 0.5 times IC50 incubated for 48 hrs by Annexin V-FITC and PI staining based flow cytometric analysis (reference value: 93.4%). Format: functional.
Data set [6] is described as follows: Toxicity in nude mouse xenografted with human HepG2 cells assessed as change in body weight at 20 to 30 mg/kg administrated daily for 50 days post implantation. The data set is classed as organism-based. Particulars: in vivo, 1200 h.
For data set [7], the target named is Platelet-derived growth factor receptor beta (Homo sapiens, UniProt P09619). The experiment in a line: Inhibition of PDGFRbeta (unknown origin) using TK substrate incubated for 60 mins by FRET assay.
Sequence of Platelet-derived growth factor receptor beta (P09619 whole entry): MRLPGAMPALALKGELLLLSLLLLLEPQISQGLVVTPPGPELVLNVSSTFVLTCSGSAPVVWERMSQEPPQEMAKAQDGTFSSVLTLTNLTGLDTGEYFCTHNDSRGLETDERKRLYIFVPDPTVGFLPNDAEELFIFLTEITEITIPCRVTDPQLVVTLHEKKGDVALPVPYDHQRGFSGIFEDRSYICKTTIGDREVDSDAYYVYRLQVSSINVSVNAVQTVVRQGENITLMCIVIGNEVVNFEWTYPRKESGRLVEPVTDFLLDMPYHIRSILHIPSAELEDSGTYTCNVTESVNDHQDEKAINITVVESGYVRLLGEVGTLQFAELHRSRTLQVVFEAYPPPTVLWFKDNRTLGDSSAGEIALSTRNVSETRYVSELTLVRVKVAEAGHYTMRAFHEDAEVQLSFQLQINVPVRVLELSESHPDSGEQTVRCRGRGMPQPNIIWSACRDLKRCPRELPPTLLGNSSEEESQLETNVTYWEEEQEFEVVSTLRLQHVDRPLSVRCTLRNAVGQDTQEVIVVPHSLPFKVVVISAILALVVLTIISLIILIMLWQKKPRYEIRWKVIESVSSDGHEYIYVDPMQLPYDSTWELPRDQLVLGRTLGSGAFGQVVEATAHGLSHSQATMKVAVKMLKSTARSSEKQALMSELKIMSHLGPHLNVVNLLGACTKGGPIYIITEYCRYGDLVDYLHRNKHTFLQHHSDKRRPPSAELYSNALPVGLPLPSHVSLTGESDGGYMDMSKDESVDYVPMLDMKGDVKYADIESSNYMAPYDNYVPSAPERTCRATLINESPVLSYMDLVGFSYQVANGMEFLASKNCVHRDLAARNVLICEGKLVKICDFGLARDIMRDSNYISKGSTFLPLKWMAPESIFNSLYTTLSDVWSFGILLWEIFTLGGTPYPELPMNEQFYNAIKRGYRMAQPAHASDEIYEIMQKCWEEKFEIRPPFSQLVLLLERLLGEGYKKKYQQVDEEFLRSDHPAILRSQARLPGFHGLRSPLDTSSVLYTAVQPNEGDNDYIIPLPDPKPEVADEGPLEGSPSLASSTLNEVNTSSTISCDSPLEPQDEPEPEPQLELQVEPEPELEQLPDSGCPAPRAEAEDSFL
Data set [8] deals with HepG2. The experiment in a line: Induction of apoptosis in human HepG2 cells assessed as late apoptotic cells at 2 times IC50 incubated for 48 hrs by Annexin V-FITC and PI staining based flow cytometric analysis (reference value: 3.47%). The data set is classed as functional.
The test system of data set [9] is HepG2. The experiment in a line: Antitumor activity against human HepG2 cells xenografted in nude mouse assessed as inhibition of tumor growth administrated daily for 50 days post implantation by vernier caliper analysis. Format: functional.
Data set [10] concerns HepG2. The data set can be described thus: Induction of apoptosis in human HepG2 cells assessed as cell shrinkage at 2 to 8 uM incubated for 48 hrs by optical microscopic method. The data set is classed as functional, cell-based.
The subject of data set [11] is HepG2. The data set can be described thus: Disruption of mitochondrial membrane potential in human HepG2 cells assessed as cell shriveled at 1.5 uM to 5 uM incubated for 48 hrs by JC-1 dye based LSCM analysis. The data set is classed as functional.
Data set [12] deals with HepG2. The experiment in a line: Induction of apoptosis in human HepG2 cells assessed as cell detachment at 2 to 8 uM incubated for 48 hrs by optical microscopic method. Format: functional, cell-based.
Data set [13] has as its system HepG2. The data set can be described thus: Induction of apoptosis in human HepG2 cells assessed as viable cells at 2 times IC50 incubated for 48 hrs by Annexin V-FITC and PI staining based flow cytometric analysis (reference value: 93.4%). The data set is classed as functional.
Data set [14] concerns HepG2. The experiment in a line: Induction of apoptosis in human HepG2 cells assessed as necrotic cells at 2 times IC50 incubated for 48 hrs by Annexin V-FITC and PI staining based flow cytometric analysis (reference value: 1.36%). The data set is classed as functional.
Data set [15] relates to HepG2. The data set can be described thus: Disruption of mitochondrial membrane potential in human HepG2 cells at 1.5 uM to 5 uM incubated for 48 hrs by JC-1 dye based fluorescence spectrophotometric analysis. Format: functional, cell-based.
The test system of data set [16] is HepG2. The data set can be described thus: Induction of apoptosis in human HepG2 cells assessed as early apoptotic cells at 2 times IC50 incubated for 48 hrs by Annexin V-FITC and PI staining based flow cytometric analysis (reference value: 1.75%). The data set is classed as functional.
The test system of data set [17] is HepG2. The experiment in a line: Induction of apoptosis in human HepG2 cells assessed as viable cells at IC50 incubated for 48 hrs by Annexin V-FITC and PI staining based flow cytometric analysis (reference value: 93.4%). The data set is classed as functional.
The subject of data set [18] is HepG2. The experiment in a line: Induction of apoptosis in human HepG2 cells assessed as necrotic cells at 0.5 times IC50 incubated for 48 hrs by Annexin V-FITC and PI staining based flow cytometric analysis (reference value: 1.36%). The data set is classed as functional.
The test system of data set [19] is HepG2. The experiment in a line: Induction of ROS generation in human HepG2 cells assessed as increase in green fluorescence incubated for 48 hrs by DCFH-DA staining based LSCM method. Format: functional, cell-based.
Data set [20] has as its system HepG2. The experiment in a line: Induction of apoptosis in human HepG2 cells assessed as early apoptotic cells at 0.5 times IC50 incubated for 48 hrs by Annexin V-FITC and PI staining based flow cytometric analysis (reference value: 1.75%). Format: functional.
Data set [21] relates to HepG2. The experiment in a line: Induction of apoptosis in human HepG2 cells assessed as decrease in cell number at 2 to 8 uM incubated for 48 hrs by optical microscopic method. Format: functional, cell-based.
For data set [22], the target named is Vascular endothelial growth factor receptor 2 (Homo sapiens, UniProt P35968). The data set can be described thus: Inhibition of VEGFR2 (unknown origin) using TK substrate incubated for 60 mins by FRET assay.
Sequence of Vascular endothelial growth factor receptor 2 (P35968 whole entry): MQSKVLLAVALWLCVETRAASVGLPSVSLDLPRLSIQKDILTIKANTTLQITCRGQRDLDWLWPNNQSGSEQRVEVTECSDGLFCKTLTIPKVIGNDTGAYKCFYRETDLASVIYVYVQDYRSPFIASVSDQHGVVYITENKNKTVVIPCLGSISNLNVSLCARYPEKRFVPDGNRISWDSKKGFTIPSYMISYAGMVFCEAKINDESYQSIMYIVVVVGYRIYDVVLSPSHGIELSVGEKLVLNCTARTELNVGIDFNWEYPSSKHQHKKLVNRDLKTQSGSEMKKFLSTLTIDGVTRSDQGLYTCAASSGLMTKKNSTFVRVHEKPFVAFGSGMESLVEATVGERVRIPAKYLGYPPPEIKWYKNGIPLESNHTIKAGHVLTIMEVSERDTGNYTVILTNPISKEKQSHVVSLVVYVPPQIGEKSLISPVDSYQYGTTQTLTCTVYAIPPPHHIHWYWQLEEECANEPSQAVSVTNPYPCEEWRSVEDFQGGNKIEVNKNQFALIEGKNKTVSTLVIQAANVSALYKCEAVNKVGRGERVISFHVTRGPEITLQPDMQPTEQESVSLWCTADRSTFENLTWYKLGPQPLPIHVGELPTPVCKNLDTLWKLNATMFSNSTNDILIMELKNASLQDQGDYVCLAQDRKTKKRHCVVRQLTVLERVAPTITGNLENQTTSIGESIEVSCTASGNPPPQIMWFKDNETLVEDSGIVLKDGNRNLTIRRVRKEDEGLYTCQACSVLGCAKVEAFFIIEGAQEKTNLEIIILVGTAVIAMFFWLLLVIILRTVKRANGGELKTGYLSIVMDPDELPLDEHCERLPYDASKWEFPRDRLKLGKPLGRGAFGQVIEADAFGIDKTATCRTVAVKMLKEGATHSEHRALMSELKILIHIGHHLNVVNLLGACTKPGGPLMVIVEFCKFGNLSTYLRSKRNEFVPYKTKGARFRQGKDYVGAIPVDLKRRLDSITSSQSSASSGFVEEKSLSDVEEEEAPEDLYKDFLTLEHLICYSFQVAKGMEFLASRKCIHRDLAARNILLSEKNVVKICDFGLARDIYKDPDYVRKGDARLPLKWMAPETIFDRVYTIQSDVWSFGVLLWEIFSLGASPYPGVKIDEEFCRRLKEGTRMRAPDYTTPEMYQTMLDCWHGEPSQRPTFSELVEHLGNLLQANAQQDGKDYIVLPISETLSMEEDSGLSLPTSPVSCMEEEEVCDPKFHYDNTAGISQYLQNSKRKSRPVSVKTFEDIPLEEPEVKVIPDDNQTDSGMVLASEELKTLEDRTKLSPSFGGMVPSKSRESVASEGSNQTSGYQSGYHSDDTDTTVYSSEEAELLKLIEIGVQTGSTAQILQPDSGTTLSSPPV
Data set [23] relates to HepG2. The data set can be described thus: Induction of apoptosis in human HepG2 cells assessed as necrotic cells at IC50 incubated for 48 hrs by Annexin V-FITC and PI staining based flow cytometric analysis (reference value: 1.36%). The data set is classed as functional.
Data set [24] deals with HepG2. The experiment in a line: Antitumor activity against human HepG2 cells xenografted in nude mouse assessed as suppression of tumor volume at 20 to 40 mg/kg administrated daily for 50 days post implantation by vernier caliper analysis. The data set is classed as functional, organism-based.
Data set [25] deals with HepG2. The data set can be described thus: Induction of apoptosis in human HepG2 cells assessed as late apoptotic cells at IC50 incubated for 48 hrs by Annexin V-FITC and PI staining based flow cytometric analysis (reference value: 3.47%). The data set is classed as functional.
Data set [26] has as its target Epidermal growth factor receptor (Homo sapiens, UniProt P00533). The data set can be described thus: Inhibition of EGFR (unknown origin) using TK substrate incubated for 60 mins by FRET assay.
Data set [27] relates to HepG2. The data set can be described thus: Disruption of mitochondrial membrane potential in human HepG2 cells assessed as appearance of cell desquamation at 1.5 uM to 5 uM incubated for 48 hrs by JC-1 dye based LSCM analysis. The data set is classed as functional.
Data set [28] concerns HepG2. The experiment in a line: Induction of apoptosis in human HepG2 cells assessed as late apoptotic cells at 0.5 times IC50 incubated for 48 hrs by Annexin V-FITC and PI staining based flow cytometric analysis (reference value: 3.47%). Format: functional.
Data set [29] in a line: Cytotoxicity against human CCC-HPF1 cells assessed as decrease in cell viability incubated for 72 hrs by MTT assay. The data set is classed as cell-based. Particulars: CCC-HPF-1, 72 h.
Data set [30] concerns HepG2. The experiment in a line: Induction of apoptosis in human HepG2 cells assessed as early apoptotic cells at IC50 incubated for 48 hrs by Annexin V-FITC and PI staining based flow cytometric analysis (reference value: 1.75%). Format: functional.

Sequence of Epidermal growth factor receptor (P00533 whole entry): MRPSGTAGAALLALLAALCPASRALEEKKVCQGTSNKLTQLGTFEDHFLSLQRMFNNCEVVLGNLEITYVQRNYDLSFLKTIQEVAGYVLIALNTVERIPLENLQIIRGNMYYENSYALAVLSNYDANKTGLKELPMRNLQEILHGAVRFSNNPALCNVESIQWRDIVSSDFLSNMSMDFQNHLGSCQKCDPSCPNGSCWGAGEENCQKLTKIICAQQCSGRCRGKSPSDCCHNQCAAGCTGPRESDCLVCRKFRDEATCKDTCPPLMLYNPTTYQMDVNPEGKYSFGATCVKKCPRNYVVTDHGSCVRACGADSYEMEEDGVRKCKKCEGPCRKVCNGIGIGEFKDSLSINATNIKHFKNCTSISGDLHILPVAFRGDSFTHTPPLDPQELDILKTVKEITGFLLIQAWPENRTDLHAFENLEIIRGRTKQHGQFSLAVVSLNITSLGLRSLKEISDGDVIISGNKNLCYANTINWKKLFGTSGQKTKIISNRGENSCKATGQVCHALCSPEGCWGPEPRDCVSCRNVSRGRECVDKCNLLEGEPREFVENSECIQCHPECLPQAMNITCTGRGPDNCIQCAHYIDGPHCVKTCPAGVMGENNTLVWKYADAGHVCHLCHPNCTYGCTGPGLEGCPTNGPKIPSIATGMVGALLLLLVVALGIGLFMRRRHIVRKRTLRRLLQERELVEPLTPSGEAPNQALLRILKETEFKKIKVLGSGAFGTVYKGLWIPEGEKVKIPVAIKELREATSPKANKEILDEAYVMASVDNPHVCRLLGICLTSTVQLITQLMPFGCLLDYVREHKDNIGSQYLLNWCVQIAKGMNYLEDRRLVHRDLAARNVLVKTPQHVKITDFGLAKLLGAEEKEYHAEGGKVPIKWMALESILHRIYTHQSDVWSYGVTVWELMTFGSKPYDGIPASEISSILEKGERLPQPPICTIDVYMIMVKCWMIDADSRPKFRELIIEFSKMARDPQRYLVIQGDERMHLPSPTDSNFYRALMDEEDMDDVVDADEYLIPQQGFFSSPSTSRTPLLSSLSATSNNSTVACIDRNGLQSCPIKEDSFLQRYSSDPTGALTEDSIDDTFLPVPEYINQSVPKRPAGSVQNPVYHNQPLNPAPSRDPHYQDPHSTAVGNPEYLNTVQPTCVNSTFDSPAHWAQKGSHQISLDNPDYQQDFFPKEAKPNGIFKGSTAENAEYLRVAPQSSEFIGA

In the case of `CNC(=O)c1cc(Oc2ccc(NC(=O)Nc3ccc(Cl)c(C(F)(F)F)c3)cc2)ccn1` [SORAFENIB], the Activity entry is listed as “Non-Toxic” in data set [1] and “Toxic” in data set [3]. Besides, the 50% inhibitory concentration (IC50) with A549 is 25.7 µM; in the data set on HepG2 [2], 7.84 µM; with SH-SY5Y, over 100 µM; with MCF7 it was 38.2 µM; with DU-145, 83.7 µM. Moreover, the inhibition in vivo at 40 mg/kg in the data set with HepG2 [4] was 100%.
`FC(F)(F)c1ccc(COc2ccc(Nc3ncnc4cc5c(cc34)OCCOCCOCCOCCO5)cc2)cc1`: the IC50 worked out at 8.56 µM with A549; 0.674 µM in data set [7]; 3.34 µM with HepG2 [2]; 0.0464 µM in data set [22]; 2.14 µM in the data set on SH-SY5Y; 0.385 µM in [26]. For the same molecule, the IC50 in the data set on MCF7 was found to be 10 µM; in [29] it was 38.2 µM; in the data set with DU-145, 8.8 µM. The Activity is listed as 71.3% with HepG2 [5]; “Non-Toxic” in [6]; 61.3% in the data set with HepG2 [8]; 29.1% with HepG2 [13]; 1.35% with HepG2 [14]; 8.27% in the data set on HepG2 [16]. The Activity entry is “Toxic” in data set [3]; 35% in the data set on HepG2 [17]; 1.01% with HepG2 [18]; “Dose-dependent effect” in the data set with HepG2 [19]; 3.72% in the data set on HepG2 [20]; 3.61% with HepG2 [23]. Further, the Activity is 52.5% in the data set on HepG2 [25], 24% in the data set on HepG2 [28] and 8.89% in the data set with HepG2 [30]. Besides, the inhibition entry in the data set on HepG2 [9] is “Dose-dependent effect”. Moreover, the outcome with HepG2 [10], in the data set with HepG2 [11], with HepG2 [12], in the data set with HepG2 [15], with HepG2 [21] and with HepG2 [24] was Active. Besides, the outcome in the data set with HepG2 [27] was Active. Moreover, in the data set on HepG2 [4], the inhibition in vivo at 40 mg/kg stood at 100%.

Values taken from ChEMBL document CHEMBL4304802, “Novel promising 4-anilinoquinazoline-based derivatives as multi-target RTKs inhibitors: Design, molecular docking, synthesis, and antitumor activities in vitro and vivo” (Bioorg Med Chem, 2019).
